What was measured:
Mcl-1 protein = Mcl-1 protein (Homo sapiens, UniProt Q07820); experiment: Inhibition of Mcl-1 by the fluorescence polarisation technique; format: binding; details: fluorescence polarisation test; Fluorescein labelled ligand 1 nM, Mcl-1 protein 5 nM, ~2 hours at r.t.; read-out: IC50 (M) Mcl-1 FP
Method in brief: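 Competitive FP displacement of fluorescein-labelled peptide ligand (1 nM final) from Mcl-1 (5 nM final) in HEPES 10 mM, 150 mM NaCl, 0.05% Tween 20, pH 7.4, 5% DMSO final. Read after ~2 h at r.t.; IC50 from 11-point 4-parameter logistic fit of % mP reduction.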

H929 cells = experiment: In vitro cytotoxicity (MTT) on H929 multiple myeloma tumour line; format: cell-based; details: Microculture Tetrazolium Assay
Procedure: The cytotoxicity studies were carried out on the H929 multiple myeloma tumour line.
The cells are distributed onto microplates and exposed to the test compounds for 48 hours.
The cell viability is then quantified by a colorimetric assay, the Microculture Tetrazolium Assay (Cancer Res., 1987, 47, 939-942).

[1] = Homo sapiens, NCI-H929, exposed 48 hours

Sequence of Mcl-1 protein (Q07820 whole entry): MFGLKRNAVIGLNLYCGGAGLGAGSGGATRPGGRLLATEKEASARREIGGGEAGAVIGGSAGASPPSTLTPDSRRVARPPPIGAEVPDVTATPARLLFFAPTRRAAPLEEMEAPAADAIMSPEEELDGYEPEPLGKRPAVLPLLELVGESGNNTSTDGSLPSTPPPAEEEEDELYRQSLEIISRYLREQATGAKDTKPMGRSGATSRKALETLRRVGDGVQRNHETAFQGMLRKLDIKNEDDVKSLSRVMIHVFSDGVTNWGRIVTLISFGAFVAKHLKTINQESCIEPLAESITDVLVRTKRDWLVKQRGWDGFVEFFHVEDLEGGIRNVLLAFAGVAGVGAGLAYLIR

| SMILES | IC50 (Mcl-1 protein) | IC50 (H929 cells; [1]) | IC50 (H929 cells; exposed 48 hours) |
| --- | --- | --- | --- |
| COCCOCCOc1ccccc1-c1nccc(COc2ccccc2CC(Oc2ncnc3sc(-c4ccc(F)cc4)c(-c4ccc(OCCN5CCN(C)CC5)c(Cl)c4C)c23)C(=O)O)n1 [Example 6, (2R)-2-{[(5Sa)-5-{3-chloro-2-methyl-4-[2-(4-methylpiperazin-1-yl)ethoxy]phenyl}-6-(4-fluoropnhenyl)thieno[2,3-d]pyrimidin-4-yl]oxy}-3-{2-[(2-{2-[2-(2-methoxyethoxy)ethoxy]phenyl}pyrimidin-4-yl)methoxy]phenyl}propanoic acid] | 1.57e-08 M | 3.25 nM |  |
| Cc1c(-c2c(-c3ccc(F)cc3)sc3ncnc(OC(Cc4ccccc4OCc4ccnc(-c5ccc(COC6OC(CO)C(O)C(O)C6O)cc5)n4)C(=O)O)c23)ccc(OCCN2CCN(C)CC2)c1Cl [Example 23, (2R)-2-{[(5Sa)-5-{3-chloro-2-methyl-4-[2-(4-methylpiperazin-1-yl)ethoxy]phenyl}-6-(4-flurophenyl)thieno[2,3-d]pyrimidin-4-yl]oxy}-3-{2-[(2-{4-[(α-D-mannopyranosyloxy)methyl]phenyl}pyrimidin-4-yl)methoxy]phenyl}propanoic acid] | 2.7e-09 M |  | 39.7 nM |
| Cc1c(-c2c(-c3ccc(F)cc3)sc3ncnc(OC(Cc4ccccc4OCc4ccnc(-c5cccc(O)c5)n4)C(=O)O)c23)ccc(OCCN2CCN(C)CC2)c1Cl [Example 1, (2R)-2-{[(5Sa)-5-{3-chloro-2-methyl-4-[2-(4-methylpiperazin-1-yl)ethoxy]phenyl}-6-(4-fluorophenyl)thieno[2,3-d]pyrimidin-4-yl]oxy}-3-(2-{[2-(3-hydroxyphenyl)pyrimidin-4-yl]methoxy}phenyl)propanoic acid] | 8.4e-09 M | 9.31 nM |  |
| Cc1c(-c2c(-c3ccc(F)cc3)sc3ncnc(OC(Cc4ccccc4OCc4ccnc(-c5cccc(COCCO)c5)n4)C(=O)O)c23)ccc(OCCN2CCN(C)CC2)c1Cl [Example 12, (2R)-2-{[(5Sa)-5-{3-chloro-2-methyl-4-[2-(4-methylpiperazin-1-yl(ethoxy]phenyl}-6-(4-fluorophenyl)thieno[2,3-d]pyrimidin-4-yl]oxy}-3-{2-[(2-{3-[(2-hydroxyethoxy)methyl]phenyl}pyrimidin-4-yl)methoxy]phenyl}propanoic acid] | 4.25e-09 M | 3.82 nM |  |
| COCCOCCOCCOc1ccc(-c2nccc(COc3ccccc3CC(Oc3ncnc4sc(-c5ccc(F)cc5)c(-c5ccc(OCCN6CCN(C)CC6)c(Cl)c5C)c34)C(=O)O)n2)cc1 [Example 33, (2R)-2-{[(5Sa)-5-{3-chloro-2-methyl-4-[2-(4-methylpiperazin-1-yl)ethoxy]phenyl}-6-(4-fluorophenyl)thieno[2,3-d]pyrimidin-4-yl]oxy}-3-(2-{[2-(4-{2-[2-(2-methoxyethoxy)ethoxy]ethoxy}phenyl)pyrimidin-4-yl]methoxy}phenyl)propanoic acid] | 2.24e-08 M | 1.18 nM |  |
| Cc1c(-c2c(-c3ccc(F)cc3)sc3ncnc(OC(Cc4ccccc4OCc4ccnc(-c5ccc(O)cc5)n4)C(=O)O)c23)ccc(OCCN2CCN(C)CC2)c1Cl [Example 2, (2R)-2-{[(5Sa)-5-{3-chloro-2-methyl-4-[2-(4-methylpiperazin-1-yl)ethoxy]phenyl}-6-(4-fluorophenyl)thieno[2,3-d]pyrimidin-4-yl]oxy}-3-(2-{[2-(4-hydroxyphenyl)pyrimidin-4-yl]methoxy}phenyl)propanoic acid] | 1.32e-08 M | 15.9 nM |  |
| Cc1c(-c2c(-c3ccc(F)cc3)sc3ncnc(OC(Cc4ccccc4OCc4ccnc(-c5cccc(COC(=O)NCCN6CCOCC6)c5)n4)C(=O)O)c23)ccc(OCCN2CCN(C)CC2)c1Cl [Example 42, (2R)-2-{[(5Sa)-5-{3-chloro-2-methyl-4-[2-(4-methylpiperazin-1-yl)ethoxy]phenyl}-6-(4-fluorophenyl)thieno[2,3-d]pyrimidin-4-yl]oxy}-3-{2-[(2-{3-[({[2-(morpholin-4-yl)ethyl]carbamoyl}oxy)methyl]phenyl}pyrimidin-4-yl)methoxy]phenyl}propanoic acid] | 4.45e-09 M | 44.5 nM |  |
| COCCOCCOCCOc1ccccc1-c1nccc(COc2ccccc2CC(Oc2ncnc3sc(-c4ccc(F)cc4)c(-c4ccc(OCCN5CCN(C)CC5)c(Cl)c4C)c23)C(=O)O)n1 [Example 7, (2R)-2-{[(5Sa)-5-{3-chloro-2-methyl-4-[2-(4-methylpiperazin-1-yl)ethoxy]phenyl}-6-(4-flurophenyl)thieno[2,3-d]pyrimidin-4-yl]oxy}-3-(2-{[2-(2-{2-[2-(2-methoxyethoxy)ethoxy]ethoxy}phenyl)pyrimidin-4-yl]methoxy}phenyl)propanoic acid] | 3.75e-09 M |  | 4.45 nM |
| COCCOCc1ccccc1-c1nccc(COc2ccccc2CC(Oc2ncnc3sc(-c4ccc(F)cc4)c(-c4ccc(OCCN5CCN(C)CC5)c(Cl)c4C)c23)C(=O)O)n1 [Example 9, (2R)-2-{[(5Sa)-5-{3-chloro-2-methyl-4-[2-(4-methylpiperazin-1-yl)ethoxy]phenyl}-6-(4-fluorophenyl)thieno[2,3-d]pyrimidin-4-yl]oxy}-3-{2-[(2-{2-[(2-methoxyethoxy)methyl]phenyl}pyrimidin-4-yl)methoxy]phenyl}propanoic acid] | 8.15e-09 M | 1.4 nM |  |

Continued by falling IC50 (Mcl-1 protein), values first:

| IC50 (Mcl-1 protein) | SMILES | IC50 (H929 cells; [1]) | IC50 (H929 cells; exposed 48 hours) |
| --- | --- | --- | --- |
| 7.2e-09 M | COC1OC(COc2cccc(-c3nccc(COc4ccccc4CC(Oc4ncnc5sc(-c6ccc(F)cc6)c(-c6ccc(OCCN7CCN(C)CC7)c(Cl)c6C)c45)C(=O)O)n3)c2)C(O)C(O)C1O [Example 16, methyl 6-O-{3-[4-({2-[(2R)-2-carboxy-2-{[(5Sa)-5-{3-chloro-2-methyl-4-[2-(4-methylpiperazin-1-yl)ethoxy]phenyl}-6-(4-flurophenyl)thieno[2,3-d]pyrimidin-4-yl]oxy}ethyl]phenoxy}methyl)pyrimidin-2-yl]phenyl}-α-D-mannopyranoside] |  | 37.1 nM |
| 4.9e-09 M | Cc1c(-c2c(-c3ccc(F)cc3)sc3ncnc(OC(Cc4ccccc4OCc4ccnc(-c5ccc(CO)cc5)n4)C(=O)O)c23)ccc(OCCN2CCN(C)CC2)c1Cl [Example 4, (2R)-2-{[(5Sa)-5-{3-chloro-2-methyl-4-[2-(4-methylpiperazin-1-yl)ethoxy]phenyl}-6-(4-fluorophenyl)thieno[2,3-d]pyrimidin-4-yl]oxy}-3-[2-({2-[4-hydroxymethyl)phenyl]pyrimidin-4-yl}methoxy)phenyl]propanoic acid] | 3.64 nM |  |
| 4.55e-09 M | Cc1c(-c2c(-c3ccc(F)cc3)sc3ncnc(OC(Cc4ccccc4OCc4ccnc(-c5cccc(COC(=O)NCCN(C)C)c5)n4)C(=O)O)c23)ccc(OCCN2CCN(C)CC2)c1Cl [Example 43, (2R)-2-{[(5Sa)-5-{3-chloro-2-methyl-4-[2-(4-methylpiperazin-1-yl)ethoxy]phenyl}-6-(4-fluorophenyl)thieno[2,3-d]pyrimidin-4-yl]oxy}-3-{2-[(2-{3-[({[2-(dimethylamino)ethyl]carbamoyl}oxy)methyl]phenyl}pyrimidin-4-yl)methoxy]phenyl}propanoic acid] | 31.1 nM |  |
| 4.35e-09 M | Cc1c(-c2c(-c3ccc(F)cc3)sc3ncnc(OC(Cc4ccccc4OCc4ccnc(-c5ccc(OCC6OC(O)C(O)C(O)C6O)cc5)n4)C(=O)O)c23)ccc(OCCN2CCN(C)CC2)c1Cl [Example 20, 6-O-{4-[4-({2-[(2R)-2-carboxy-2-{[(5Sa)-5-{3-chloro-2-methyl-4-[2-(4-methylpiperazin-1-yl)ethoxy]phenyl}-6-(4-fluorophenyl)thieno[2,3-d]pyrimidin-4-yl]oxy}ethyl]phenoxy}methyl)pyrimidin-2-yl]phenyl}-D-mannopyranose] | 56.8 nM |  |
| 4.05e-09 M | Cc1c(-c2c(-c3ccc(F)cc3)sc3ncnc(OC(Cc4ccccc4OCc4ccnc(-c5ccccc5COCC5COC(C)(C)O5)n4)C(=O)O)c23)ccc(OCCN2CCN(C)CC2)c1Cl [Example 11, (2R)-2-{[(5Sa)-5-{3-chloro-2-methyl-4-[2-(4-methylpiperazin-1-yl)ethoxy]phenyl}-6-(4-fluorophenyl)thieno[2,3-d]pyrimidin-4-yl]oxy}-3-(2-{[2-(2-{[(2,2-dimethyl-1,3-dioxolan-4-yl)methoxy]methyl}phenyl)pyrimidin-4-yl]methoxy}phenyl)propanoic acid] | 1.99 nM |  |
| 3.45e-09 M | Cc1c(-c2c(-c3ccc(F)cc3)sc3ncnc(OC(Cc4ccccc4OCc4ccnc(-c5ccccc5OCC(O)CO)n4)C(=O)O)c23)ccc(OCCN2CCN(C)CC2)c1Cl [Example 25, (2R)-2-{[(5Sa)-5-{3-chloro-2-methyl-4-[2-(4-methylpiperazin-1-yl)ethoxy]phenyl}-6-(4-fluorophenyl)thieno[2,3-d]pyrimidin-4-yl]oxy}-3-[2-({2-[2-(2,3-dihydroxypropoxy)phenyl]pyrimidin-4-}methoxy)phenyl]propanoic acid] | 10 nM |  |
| 2.8e-09 M | Cc1c(-c2c(-c3ccc(F)cc3)sc3ncnc(OC(Cc4ccccc4OCc4ccnc(-c5cccc(OCCOCCOCCO)c5)n4)C(=O)O)c23)ccc(OCCN2CCN(C)CC2)c1Cl [Example 38, (2R)-2-{[(5Sa)-5-{3-chloro-2-methyl-4-[2-(4-methylpiperazin-1-yl)ethoxy]phenyl}-6-(4-fluorophenyl)thieno[2,3-d]pyrimidin-4-yl]oxy}-3-(2-{[2-(3-{2-[2-(2-hydroxyethoxy)ethoxy]ethoxy}phenyl)pyrimidin-4-yl]methoxy}phenyl)propanoic acid] | 2.76 nM |  |

From patent US10322131B2, “Hydroxyacid derivatives, a process for their preparation and pharmaceutical compositions containing them” (LES LABORATOIRES SERVIER, priority 2015, dated 2019)
